Here are results for one compound from US9738612B2, “Methylacryloyl benzimidazolone derivative and anti-tumour use thereof” (SHANGHAI NATURE STANDARD R&D AND BIOTECH CO., LTD, priority 2014, dated 2017).

The test system of test [1] is PI3K/Akt/mTOR signaling pathway. Description: Inhibition test to signaling pathway at the cellular level (FIG. 4). The format is cell-based. As to conditions: different concentrations, FIG. 4, in words. Here is the method: A549 cells were seeded at a density of 2×10^5 cells/well into 12-well plates, and adhered overnight. Then the medium was discarded and the plates were washed three times with normal saline. After that, fresh serum-free medium was added to starve cells for 24 hours, compounds to be tested were added to work for 1 h, then IGF-I was added to stimulated for 10 min, followed byadding a lysis buffer on ice to lyse for half an hour. The cell lysates were collected and centrifuged at 20000×g at 4° C. for 10min, then the supernatant was collected. Protein was quantified by MicroBCA protein quantification Assay kit, and the protein concentration was normalized. The supernatant was mixed with the 4×SDS sample buffer [200 mM Tris.Cl (pH 6.8), 400 mM DTT, 8% SDS, 0.4% bromophenol blue, 40% glycerol] and boiled for 15 min. After cooling at room temperature, aliquots were loaded on polyacrylamide gel, and electrophoresed in Tris-glycine electrophoretic buffer (25 mM Tris, 250 mM glycine, 0.1% SDS) at 80-120 V for about 2 h. Proteins were transferred from the gel to a nitrocellulose membrane by a semi-dry method. Transferring conditions: transfer buffer (39 mM glycine, 48 mM Tris base, 0.037% SDS, 20% methanol); transfer current 25 mA; transfer time 2 h. After transfer, Ponceau S staining was used to determine the transfer efficiency and the positions of protein bands on the nitrocellulose membranes. […]

In the next test the target is T1, PKBα(h) (Homo sapiens, UniProt P31749).
T1 construct: purchased Eurofins Pharma Discovery Services UK Limited
T1 sequence (P31749 whole entry): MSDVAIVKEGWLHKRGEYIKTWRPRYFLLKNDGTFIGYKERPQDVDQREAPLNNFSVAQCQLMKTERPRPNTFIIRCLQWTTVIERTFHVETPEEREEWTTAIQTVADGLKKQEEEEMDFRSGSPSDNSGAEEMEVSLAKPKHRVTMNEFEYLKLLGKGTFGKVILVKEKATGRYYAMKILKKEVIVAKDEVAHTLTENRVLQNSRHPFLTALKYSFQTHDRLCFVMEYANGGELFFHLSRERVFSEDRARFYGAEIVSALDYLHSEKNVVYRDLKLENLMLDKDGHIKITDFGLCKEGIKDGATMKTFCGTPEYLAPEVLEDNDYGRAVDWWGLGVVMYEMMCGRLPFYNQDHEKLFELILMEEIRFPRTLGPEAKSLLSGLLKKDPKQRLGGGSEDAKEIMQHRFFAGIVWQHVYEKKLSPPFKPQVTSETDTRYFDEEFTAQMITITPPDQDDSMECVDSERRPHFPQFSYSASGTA
Description: Tumor-associated kinase inhibition test. The format is biochemical. As to conditions: read-out: Inhibitory rate (%). From the text:
(§1) Eurofins Pharma Discovery Services UK Limited completed and reported this experiment.

For another test, the target named is T2, PKCα(h) (Homo sapiens, UniProt P17252).
T2 construct: purchased Eurofins Pharma Discovery Services UK Limited
Put plainly: Tumor-associated kinase inhibition test. The format is biochemical. The conditions noted are these: read-out: Inhibitory rate (%).
Source text: as §1

The target in a further test is T3, cKit(h) (Homo sapiens, UniProt P10721).
T3 construct: purchased Eurofins Pharma Discovery Services UK Limited (contract testing)
Put plainly: Tumor-associated kinase inhibition test. The format is biochemical. As to conditions: read-out: Inhibitory rate (%).
Source text: as §1

The target in a further test is T4, PI3Kinase(p110δ/p85α)(h) (Homo sapiens, UniProt O00329).
T4 construct: purchased Eurofins Pharma Discovery Services UK Limited (contract assay)
T4 sequence (O00329 whole entry): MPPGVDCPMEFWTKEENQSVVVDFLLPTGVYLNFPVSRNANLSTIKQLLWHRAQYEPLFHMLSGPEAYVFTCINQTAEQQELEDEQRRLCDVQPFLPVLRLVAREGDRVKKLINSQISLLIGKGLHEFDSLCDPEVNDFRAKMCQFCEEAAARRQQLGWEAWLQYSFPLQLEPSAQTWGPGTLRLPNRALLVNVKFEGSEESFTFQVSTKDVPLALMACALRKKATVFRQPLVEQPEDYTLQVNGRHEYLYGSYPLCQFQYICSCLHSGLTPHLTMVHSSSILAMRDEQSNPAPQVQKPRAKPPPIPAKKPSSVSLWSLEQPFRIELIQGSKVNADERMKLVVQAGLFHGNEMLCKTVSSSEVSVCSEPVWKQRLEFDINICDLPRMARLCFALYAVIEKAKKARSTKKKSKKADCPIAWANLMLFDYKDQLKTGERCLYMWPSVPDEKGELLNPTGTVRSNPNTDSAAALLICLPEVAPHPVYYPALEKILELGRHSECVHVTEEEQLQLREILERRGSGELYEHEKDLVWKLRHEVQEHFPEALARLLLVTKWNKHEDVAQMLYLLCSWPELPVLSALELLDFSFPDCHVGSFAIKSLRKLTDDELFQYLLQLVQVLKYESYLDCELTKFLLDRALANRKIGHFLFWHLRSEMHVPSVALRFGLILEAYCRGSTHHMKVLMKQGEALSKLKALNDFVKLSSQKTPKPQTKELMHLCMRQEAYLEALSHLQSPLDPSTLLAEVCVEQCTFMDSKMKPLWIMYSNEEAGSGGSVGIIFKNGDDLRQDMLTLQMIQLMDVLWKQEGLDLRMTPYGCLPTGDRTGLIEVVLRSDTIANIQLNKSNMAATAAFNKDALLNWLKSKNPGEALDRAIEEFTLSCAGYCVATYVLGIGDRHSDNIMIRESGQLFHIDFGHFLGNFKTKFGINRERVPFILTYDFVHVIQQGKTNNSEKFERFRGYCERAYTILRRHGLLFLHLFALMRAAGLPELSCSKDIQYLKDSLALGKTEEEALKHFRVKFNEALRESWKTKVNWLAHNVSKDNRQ
T4 sequence (P27986 whole entry partner): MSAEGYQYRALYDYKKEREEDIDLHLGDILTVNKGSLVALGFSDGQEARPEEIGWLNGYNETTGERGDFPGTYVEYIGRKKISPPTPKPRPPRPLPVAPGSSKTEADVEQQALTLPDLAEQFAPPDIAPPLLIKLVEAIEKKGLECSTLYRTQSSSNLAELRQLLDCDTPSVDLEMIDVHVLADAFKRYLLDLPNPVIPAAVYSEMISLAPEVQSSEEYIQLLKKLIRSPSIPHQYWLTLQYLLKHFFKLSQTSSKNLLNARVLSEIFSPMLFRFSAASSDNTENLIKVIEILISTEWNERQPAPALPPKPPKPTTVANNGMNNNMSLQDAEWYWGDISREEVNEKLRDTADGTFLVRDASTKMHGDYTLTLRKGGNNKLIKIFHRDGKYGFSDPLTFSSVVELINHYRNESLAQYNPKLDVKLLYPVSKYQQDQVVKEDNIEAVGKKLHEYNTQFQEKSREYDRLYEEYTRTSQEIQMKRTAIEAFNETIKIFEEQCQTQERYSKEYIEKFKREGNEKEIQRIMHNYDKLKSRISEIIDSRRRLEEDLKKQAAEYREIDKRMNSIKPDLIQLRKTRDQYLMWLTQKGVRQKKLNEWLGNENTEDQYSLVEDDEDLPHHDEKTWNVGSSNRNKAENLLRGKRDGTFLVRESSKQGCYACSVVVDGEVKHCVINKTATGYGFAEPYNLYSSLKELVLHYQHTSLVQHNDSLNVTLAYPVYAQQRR
Put plainly: Tumor-associated kinase inhibition test. The format is biochemical. The conditions noted are these: read-out: Inhibitory rate (%).
Source text: as §1

The target of a further test is T5, Flt3(h) (Homo sapiens, UniProt P36888).
T5 construct: purchased Eurofins Pharma Discovery Services UK Limited (contract testing)
T5 sequence (P36888 27-993): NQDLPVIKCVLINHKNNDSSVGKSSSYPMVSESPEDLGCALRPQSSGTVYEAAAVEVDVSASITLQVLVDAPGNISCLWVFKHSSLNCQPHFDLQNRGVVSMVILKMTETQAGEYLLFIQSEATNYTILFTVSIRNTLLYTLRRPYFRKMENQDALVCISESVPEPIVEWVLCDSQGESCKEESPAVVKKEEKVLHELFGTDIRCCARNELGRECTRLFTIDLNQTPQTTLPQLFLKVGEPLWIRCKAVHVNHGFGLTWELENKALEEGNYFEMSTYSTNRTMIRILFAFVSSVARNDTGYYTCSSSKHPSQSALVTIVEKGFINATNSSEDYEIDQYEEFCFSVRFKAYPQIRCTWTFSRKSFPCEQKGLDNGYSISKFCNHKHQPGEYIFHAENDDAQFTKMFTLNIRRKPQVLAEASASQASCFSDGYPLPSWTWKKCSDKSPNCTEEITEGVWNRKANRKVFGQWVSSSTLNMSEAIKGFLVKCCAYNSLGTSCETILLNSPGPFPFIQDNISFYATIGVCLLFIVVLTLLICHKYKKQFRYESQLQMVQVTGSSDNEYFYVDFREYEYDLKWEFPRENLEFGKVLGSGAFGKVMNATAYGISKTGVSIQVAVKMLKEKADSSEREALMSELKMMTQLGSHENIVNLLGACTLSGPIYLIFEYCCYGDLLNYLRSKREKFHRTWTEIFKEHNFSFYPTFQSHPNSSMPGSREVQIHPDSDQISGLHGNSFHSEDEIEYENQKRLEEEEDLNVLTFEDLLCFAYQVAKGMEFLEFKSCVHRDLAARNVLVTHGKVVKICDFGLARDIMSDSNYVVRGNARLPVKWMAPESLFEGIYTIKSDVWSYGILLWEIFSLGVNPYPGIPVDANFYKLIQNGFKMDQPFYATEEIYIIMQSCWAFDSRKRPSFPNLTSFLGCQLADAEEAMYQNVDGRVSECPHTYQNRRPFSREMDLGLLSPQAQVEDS
Put plainly: Tumor-associated kinase inhibition test. The format is biochemical. The conditions noted are these: read-out: Inhibitory rate (%).
Source text: as §1

The target in the next test is T6, CDK5/p35(h) (Homo sapiens, UniProt Q00535).
T6 construct: purchased Eurofins Pharma Discovery Services UK Limited (contract assay service)
Description: Tumor-associated kinase inhibition test. Format: biochemical. The conditions noted are these: read-out: Inhibitory rate (%).
Source text: as §1

The next test has as its target T7, PIP4K2α(h) (Homo sapiens, UniProt P48426).
T7 construct: purchased Eurofins Pharma Discovery Services UK Limited (contract assay)
Description: Tumor-associated kinase inhibition test. The conditions noted are these: read-out: Inhibitory rate (%). The format is biochemical.
Source text: as §1

The target in the next test is T8, CHK1(h) (Homo sapiens, UniProt O14757).
T8 construct: purchased Eurofins Pharma Discovery Services UK Limited (contract assay service)
Put plainly: Tumor-associated kinase inhibition test. The format is biochemical. The conditions noted are these: read-out: Inhibitory rate (%).
Source text: as §1

The target in the next test is T9, Fms(h) (Homo sapiens, UniProt P07333).
T9 construct: purchased Eurofins Pharma Discovery Services UK Limited (contract testing)
Put plainly: Tumor-associated kinase inhibition test. The format is biochemical. As to conditions: read-out: Inhibitory rate (%).
Source text: as §1

A further test addresses T10, PIP5K1α(h) (Homo sapiens, UniProt Q99755).
T10 construct: purchased Eurofins Pharma Discovery Services UK Limited (contract assay)
Put plainly: Tumor-associated kinase inhibition test. Format: biochemical. The conditions noted are these: read-out: Inhibitory rate (%).
Source text: as §1

The target of the next test is T11, PKBγ(h) (Homo sapiens, UniProt Q9Y243).
T11 construct: purchased Eurofins Pharma Discovery Services UK Limited
Description: Tumor-associated kinase inhibition test. As to conditions: read-out: Inhibitory rate (%). The format is biochemical.
Source text: as §1

The target of another test is T12, EphB4(h) (Homo sapiens, UniProt P54760).
T12 construct: purchased Eurofins Pharma Discovery Services UK Limited (contract testing)
T12 sequence (P54760 16-987): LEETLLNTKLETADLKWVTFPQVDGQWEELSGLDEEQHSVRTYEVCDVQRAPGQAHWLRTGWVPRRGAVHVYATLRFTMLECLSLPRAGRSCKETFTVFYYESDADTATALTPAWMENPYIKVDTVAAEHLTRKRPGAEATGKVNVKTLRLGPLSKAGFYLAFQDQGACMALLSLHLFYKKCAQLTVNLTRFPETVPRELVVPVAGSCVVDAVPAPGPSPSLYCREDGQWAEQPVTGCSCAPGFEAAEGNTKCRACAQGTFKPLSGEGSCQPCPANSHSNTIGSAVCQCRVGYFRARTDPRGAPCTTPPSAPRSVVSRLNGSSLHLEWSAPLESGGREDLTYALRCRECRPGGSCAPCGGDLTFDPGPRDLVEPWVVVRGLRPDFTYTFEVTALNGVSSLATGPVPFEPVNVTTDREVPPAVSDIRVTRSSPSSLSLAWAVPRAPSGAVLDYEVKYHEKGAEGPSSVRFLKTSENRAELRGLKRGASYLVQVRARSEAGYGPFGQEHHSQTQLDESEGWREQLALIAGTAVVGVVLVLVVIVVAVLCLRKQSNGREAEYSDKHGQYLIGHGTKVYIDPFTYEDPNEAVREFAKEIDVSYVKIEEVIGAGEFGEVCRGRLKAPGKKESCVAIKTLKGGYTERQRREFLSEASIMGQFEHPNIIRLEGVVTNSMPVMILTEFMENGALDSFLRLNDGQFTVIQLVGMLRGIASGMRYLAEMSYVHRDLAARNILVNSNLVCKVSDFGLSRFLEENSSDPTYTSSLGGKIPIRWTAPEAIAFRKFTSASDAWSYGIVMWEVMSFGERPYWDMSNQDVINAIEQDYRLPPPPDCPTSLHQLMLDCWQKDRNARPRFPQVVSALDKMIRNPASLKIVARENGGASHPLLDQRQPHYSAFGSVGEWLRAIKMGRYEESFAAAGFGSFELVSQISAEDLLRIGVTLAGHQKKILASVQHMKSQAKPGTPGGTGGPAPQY
Description: Tumor-associated kinase inhibition test. As to conditions: read-out: Inhibitory rate (%). Format: biochemical.
Source text: as §1

In a further test the target is T13, IGF-1R(h), activated (Homo sapiens, UniProt P08069).
T13 construct: purchased Eurofins Pharma Discovery Services UK Limited (contract testing)
Description: Tumor-associated kinase inhibition test. Format: biochemical. As to conditions: read-out: Inhibitory rate (%).
Source text: as §1

A further test concerns the target T14, GSK3β(h) (Homo sapiens, UniProt P49841).
T14 construct: purchased Eurofins Pharma Discovery Services UK Limited (contract testing)
Description: Tumor-associated kinase inhibition test. The format is biochemical. As to conditions: read-out: Inhibitory rate (%).
Source text: as §1

The next test concerns the target T15, LKB1(h) (Homo sapiens, UniProt Q15831).
T15 construct: purchased Eurofins Pharma Discovery Services UK Limited
Put plainly: Tumor-associated kinase inhibition test. The format is biochemical. The conditions noted are these: read-out: Inhibitory rate (%).
Source text: as §1

Another test concerns the target T16, Fyn(h) (Homo sapiens, UniProt P06241).
T16 construct: purchased Eurofins Pharma Discovery Services UK Limited (contract testing)
Put plainly: Tumor-associated kinase inhibition test. Format: biochemical. As to conditions: read-out: Inhibitory rate (%).
Source text: as §1

Another test deals with T17, Plk1(h) (Homo sapiens, UniProt P53350).
T17 construct: purchased Eurofins Pharma Discovery Services UK Limited
Put plainly: Tumor-associated kinase inhibition test. Format: biochemical. The conditions noted are these: read-out: Inhibitory rate (%).
Source text: as §1

The target in the next test is T18, EGFR(h) (Homo sapiens, UniProt P00533).
T18 construct: purchased Eurofins Pharma Discovery Services UK Limited (contract testing)
Put plainly: Tumor-associated kinase inhibition test. Format: biochemical. As to conditions: read-out: Inhibitory rate (%).
Source text: as §1

A further test addresses T19, IKKα(h) (Homo sapiens, UniProt O15111).
T19 construct: purchased Eurofins Pharma Discovery Services UK Limited (contract testing)
Put plainly: Tumor-associated kinase inhibition test. The format is biochemical. The conditions noted are these: read-out: Inhibitory rate (%).
Source text: as §1

In another test the target is T20, ASK1(h) (Homo sapiens, UniProt Q99683).
T20 construct: purchased Eurofins Pharma Discovery Services UK Limited (contract assay service)
Put plainly: Tumor-associated kinase inhibition test. The format is biochemical. As to conditions: read-out: Inhibitory rate (%).
Source text: as §1

For a further test, the target named is T21, Arg(h) (Homo sapiens, UniProt P42684).
T21 construct: purchased Eurofins Pharma Discovery Services UK Limited (contract assay service)
Description: Tumor-associated kinase inhibition test. Format: biochemical. As to conditions: read-out: Inhibitory rate (%).
Source text: as §1

The next test concerns the target T22, FAK(h) (Homo sapiens, UniProt Q05397).
T22 construct: purchased Eurofins Pharma Discovery Services UK Limited (contract testing)
Description: Tumor-associated kinase inhibition test. The format is biochemical. As to conditions: read-out: Inhibitory rate (%).
Source text: as §1

Structures are written as SMILES.

T19 sequence (O15111 whole entry): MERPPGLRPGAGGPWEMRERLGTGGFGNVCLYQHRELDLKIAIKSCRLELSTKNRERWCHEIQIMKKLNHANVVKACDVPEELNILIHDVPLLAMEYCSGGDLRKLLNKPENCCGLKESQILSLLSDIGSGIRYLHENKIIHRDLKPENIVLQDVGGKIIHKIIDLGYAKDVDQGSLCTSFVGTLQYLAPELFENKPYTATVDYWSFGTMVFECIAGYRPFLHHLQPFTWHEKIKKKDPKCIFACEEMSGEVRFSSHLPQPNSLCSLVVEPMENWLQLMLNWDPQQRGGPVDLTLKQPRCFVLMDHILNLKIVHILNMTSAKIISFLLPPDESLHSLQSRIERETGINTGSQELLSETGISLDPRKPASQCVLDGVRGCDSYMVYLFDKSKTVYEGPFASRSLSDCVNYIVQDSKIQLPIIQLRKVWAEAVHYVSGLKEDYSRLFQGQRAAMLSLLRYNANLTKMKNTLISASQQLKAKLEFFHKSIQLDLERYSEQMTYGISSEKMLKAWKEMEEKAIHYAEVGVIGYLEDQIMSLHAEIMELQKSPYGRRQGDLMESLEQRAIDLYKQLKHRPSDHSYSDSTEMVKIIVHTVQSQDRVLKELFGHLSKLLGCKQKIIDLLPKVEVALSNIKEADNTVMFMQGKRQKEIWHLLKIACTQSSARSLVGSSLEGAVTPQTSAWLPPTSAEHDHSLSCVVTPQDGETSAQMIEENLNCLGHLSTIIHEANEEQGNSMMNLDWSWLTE

Regarding `C=C(C)n1c(=O)n(C(C)=O)c2ncc(Br)cc21` [FD162], the “Down-regulation of PI3K/Akt/mTOR signaling pathway” value in test [1] is “down-regulate PI3K/Akt/mTOR signaling pathway in a dose-dependent manner”. The inhibition at 10 µM came out at 4% at PKBα(h); 24% on PKCα(h); 7% on cKit(h); 3% on PI3Kinase(p110δ/p85α)(h); 4% on Flt3(h); 0% on CDK5/p35(h). Further, the inhibition at 10 µM was -2% at PIP4K2α(h); -14% at CHK1(h); -9% at Fms(h); -2% on PIP5K1α(h); 8% on PKBγ(h); -8% at EphB4(h). For the same compound, the inhibition at 10 µM was found to be 0% on IGF-1R(h), activated; 6% on GSK3β(h); 8% at LKB1(h); 2% at Fyn(h); 7% at Plk1(h); 0% at EGFR(h). Moreover, the inhibition at 10 µM on IKKα(h) was 5%; at ASK1(h), 4%; at Arg(h), -7%; on FAK(h), 1%.
